Data on two compounds can be found in patent US20180296537A1, “METHODS AND COMPOSITIONS FOR DIAGNOSING, TREATING, AND MONITORING TREATMENT OF SHANK3 DEFICIENCY ASSOCIATED DISORDERS” (Novartis AG, priority 2015, published 2018).

For assay [1], the system named is Akt. Nature of the assay: Western blot of Akt phosphorylation in rat primary cortical neurons (Shank3 knock down vs control). The assay is classed as cell-based. The settings on record: for phosphorylation of Akt T308: 10 μM TG003, 60 minutes, DIV 16. An excerpt:
E18 primary rat cortical neurons were dissected, cultured and infected 6 days after plating (DIV6) with indicated lentiviruses at MOI 10, as previously described (Proenca et al., 2013). Lentiviruses were produced by calcium phosphate transfection of HEK293T cells with packaging plasmids (Life Technologies) and transfer plasmid in 10 cm dishes. Cells were transferred to fresh medium 6 hrs. post-transfection. Four days post-transfection, the cell medium was collected and pooled from several dishes, cleared of cellular debris by 0.45 μm filtration, and concentrated 100× by centrifugation at 19,000 g for 90 min in a Beckman Ultracentrifuge using a SW28/SW32 rotor. Pellets were suspended in PBS/0.5% BSA and viral titer was determined by ELISA quantification of viral p24 antigen (Zeptometrix Corp, USA). For shRNA plasmid generation, oligonucleotides were annealed and ligated into lentiviral transfer plasmid pLKO.1-GFP vector at the AgeI/EcoRI sites. The target sequences of shRNAs that target rat and mouse Shank3 (5′-3′) are: […] […] (SEQ ID NO: 2), and […] (SEQ ID NO: 3). The latter was previously reported (Verpelli et al., 2011). A luciferase-targeting sequence was used as an shRNA control: […] (SEQ ID NO: 4).
For immunoprecipitation (IP) of HA-tagged Akt, neurons were lysed in IP buffer (20 mM Tris-HCl pH 7.4, 3 mM EDTA, 3 mM EGTA, 150 mM NaCl, 0.5% NP-40, and protease/phosphatase inhibitor cocktails (Roche)). Lysates were cleared by centrifugation at 13,000 rpm for 10 min and lysates normalized for protein abundance were immunoprecipitated with rabbit HA-tag antibody for 1 h at 4° C. Immuno-complexes were then captured by incubation for an additional 1 hr with Protein A agarose beads (Roche). Beads were washed three times with IP buffer and bound proteins were eluted with 2×SDS-PAGE sample buffer, then boiled for 5 min. For IP and analysis of ubiquitinated Myc-Clk2, neurons were lysed in Ubiquitin IP buffer (20 mM Tris-HCl pH 7.4, 3 mM EDTA, 3 mM EGTA, 150 mM NaCl, 1% Triton X-100, protease/phosphatase inhibitor cocktails (Roche), 5 mM N-ethylmaleimide, and 3 mM iodoacetamide) containing 1% SDS. Lysates were boiled for 20 min to denature proteins and then centrifuged for 10 min at 13,000 rpm. Lysates were subsequently diluted to 0.1% SDS with Ubiquitin IP buffer and immunoprecipitated with Myc antibody for 1 h. Complexes were then captured by addition of Protein G agarose (Roche) and additional 1 h incubation. Beads were washed 3× and eluted with 2×SDS-PAGE sample buffer, then boiled for 5 min. Samples prepared for SDS-PAGE were then resolved on 4-12% Novex gels (Life Technologies), transferred to PVDF membranes, blocked in 5% low-fat milk in TBS/0.1% Tween-20, and incubated overnight with primary antibodies. After washing and 1 h incubation with secondary antibodies, proteins were visualized by Chemiluminescent detection (Amersham-GE Healthcare Life Sciences).
To determine whether Shank3 deficiency impacts the PI3K-Akt-mTOR signaling pathway (FIG. 1A, gray highlight), lentiviral-mediated delivery of shRNAs was used to knock-down Shank3 in rat primary cortical neuron cultures. Cultured rat primary cortical neurons were transduced with lentiviruses encoding control shRNA or Shank3-shRNA at six days in vitro (DIV 6) and treated with BDNF (50 ng/ml) for 15 or 30 min at 14-16 days in vitro (DIV 14-16). Cell lysates were prepared in RIPA buffer prior to resolution by SDS-PAGE and Western blotting.
Cortical neurons, transduced with shRNA-expressing lentiviruses on DIV 6, were treated with 50 ng/ml BDNF or okadaic acid (100 nM) on DIV 16 and cell lysates were resolved by SDS-PAGE, followed by Western blotting.
For orientation: Immunoblotting shows a protein as a band on a membrane.

Assay [2] deals with rpS6. Nature of the assay: Western blot of rpS6 phosphorylation in Shank3 knock down primary neurons. The format is cell-based, rat. An excerpt: E18 primary rat cortical neurons were dissected, cultured and infected 6 days after plating (DIV6) with indicated lentiviruses at MOI 10, as previously described (Proenca et al., 2013). Lentiviruses were produced by calcium phosphate transfection of HEK293T cells with packaging plasmids (Life Technologies) and transfer plasmid in 10 cm dishes. Cells were transferred to fresh medium 6 hrs. post-transfection. Four days post-transfection, the cell medium was collected and pooled from several dishes, cleared of cellular debris by 0.45 μm filtration, and concentrated 100× by centrifugation at 19,000 g for 90 min in a Beckman Ultracentrifuge using a SW28/SW32 rotor. Pellets were suspended in PBS/0.5% BSA and viral titer was determined by ELISA quantification of viral p24 antigen (Zeptometrix Corp, USA). For shRNA plasmid generation, oligonucleotides were annealed and ligated into lentiviral transfer plasmid pLKO.1-GFP vector at the AgeI/EcoRI sites. The target sequences of shRNAs that target rat and mouse Shank3 (5′-3′) are: […] (SEQ ID NO: 1), […] (SEQ ID NO: 2), and […] (SEQ ID NO: 3). The latter was previously reported (Verpelli et al., 2011). A luciferase-targeting sequence was used as an shRNA control: […] (SEQ ID NO: 4). […]

The mark [3] stands for this setting: Shank3 knock down primary neurons, SC79 treatment.

Regarding `CCOC(=O)C1=C(N)Oc2ccc(Cl)cc2C1C(C#N)C(=O)OCC` (centres unmarked) [SC79], the Akt phosphorylation result in assay [1] (setting [3]) is “restored Akt and rpS6 phosphorylation”. For the same compound, the rpS6 phosphorylation entry in assay [2] (setting [3]) is “restored Akt and rpS6 phosphorylation”.

For `CCN1/C(=C/C(C)=O)Sc2ccc(OC)cc21` [TG003, (Z)-1-(3-ethyl-5-methoxy-2,3-dihydrobenzothiazol-2-ylidene)propan-2-one], the “phosphorylation of Akt T308” value was “restored to control levels in Shank3 knock down neurons” in assay [1] (Shank3 knock down neurons) and “refractory to TG003” in assay [1] (control neurons). In addition, the rpS6 phosphorylation result in assay [2] (Shank3 knock-down (shShank3) neurons, TG003 (FIG. 3F)) is “restores Akt and rpS6 phosphorylation”.
